From PMC7324608 (Scientific Reports, 2020)

How the values were obtained:
[1] = target: T1, HpHtrA S164A (Helicobacter pylori, UniProt G2J5T2, S164A); assay: biochemical
T1 sequence (G2J5T2 18-475 S164A): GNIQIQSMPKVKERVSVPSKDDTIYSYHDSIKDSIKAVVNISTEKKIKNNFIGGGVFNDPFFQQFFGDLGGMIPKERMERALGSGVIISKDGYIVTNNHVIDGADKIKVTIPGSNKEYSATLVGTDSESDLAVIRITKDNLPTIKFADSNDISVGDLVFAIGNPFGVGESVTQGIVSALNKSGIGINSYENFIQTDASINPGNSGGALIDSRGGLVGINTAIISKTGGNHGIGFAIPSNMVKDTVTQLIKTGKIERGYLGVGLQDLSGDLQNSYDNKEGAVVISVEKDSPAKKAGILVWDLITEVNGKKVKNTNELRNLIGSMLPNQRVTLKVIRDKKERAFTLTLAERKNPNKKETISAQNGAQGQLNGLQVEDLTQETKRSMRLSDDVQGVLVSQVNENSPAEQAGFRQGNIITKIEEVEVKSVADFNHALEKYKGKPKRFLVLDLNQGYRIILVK
Procedure: Synthesis of 2-Abz-AQRVAFY(3-NO2)-NH2. The peptide was assembled manually on a 20 µmol scale.
The side-chain protecting groups were Pbf for Arg, and Trt for Gln. Fmoc deprotection was carried out with 25% piperidine in DMF/NMP (80:20, v/v) for 3 min, and 12.5% piperidine in DMF/NMP (80:20, v/v) for 12 min. The double couplings (2x45 min) were accomplished with the mixture Fmoc-AA-OH/HOBt/HBTU/DIPEA (5:5:4.8:10 equiv.). 2 -Boc-Abz-OH was coupled with the same protocol.
Afterwards, the peptidyl-resin was treated with 25% piperidine in DMF/NMP (80:20, v/v) (2x12 min) to deacylate the 3-nitro-tyrosine side chain. The peptide was simultaneously cleaved from the resin and deprotected by using the mixture TFA/H2O/TIA/EDT/TIS (90:3:1:3:3; Vtot = 1 ml) for about 3 h, precipitated from ice-cold diethyl ether, recovered by centrifugation at 4 °C for 6 min, washed four times with ice-cold diethyl ether, and dried in vacuo. The solid was dissolved in water and lyophilized.
Microscale thermophoresis .
D168A, MicroScale Thermophoresis (MST) analysis was performed using the Monolith NT.115 (NanoTemper Technologies). HpHtrA proteases were labeled with red fluorescent dye NT -650-NHS (amine reactive) according to the manufacturer’s protocol. Remaining free dye was removed by buffer exchange column chromatography and proteins were eluted in 50 mM Tris pH 7.4, 150 mM NaCl, 0.04% Tween. 5 nM of labelled HpHtrA was incubated for 15 minutes at RT with decreasing […]
Measurement was performed with premium treated capillaries (NanoTemper Technologies) and the Monolith NT.115 Microscale Thermophoresis device. Data analysis was performed with MO.Affinity Analysis v2.3 (NanoTemper Technologies) and GraphPad Prism Software (Version 8.0.2). Three independent experiments were […]

[2] = target: T1, HpHtrA S164A; assay: thermal shift assay; type: binding; set-up: (HpHtrA, G18-K475, UniProt G2J5T2); GST (N, cleaved yes); made in house; host or cells: E. coli BL21
Procedure: Recombinant HpHtrA proteins (wt, S164A, D165A, S166A, D168A) in 50 mM HEPES buffer (pH 7.4) were mixed with SYPRO Orange (Sigma-Aldrich, Vienna, Austria) to final concentrations of 4 µM HpHtrA and 7 × SYPRO Orange in a 96-well PCR plate. […] Fluorescence data was collected using an Applied Bioscience StepOne Plus PCR cycler (Thermo Fisher Scientific, Schwerte, Germany) during a temperature ramp from 25–95 °C (0.5 °C per min) with a 4 min hold at 25 °C and 95 °C. SYPRO Orange binds to exposed hydrophobic regions within the denatured HpHtrA proteins, which increases the fluorescence of the dye[57],[58]. The fluorescence emission signal can then be used to determine the melting temperature of the protein, which is located at the infliction point of the fluorescence signal curve. The experiment was performed in triplicates.

SMILES | Kd [1] [µM] | Response amplitude ([1]; MST, 5 nM labelled HpHtrA S164A) | S/N (signal to noise ratio) ([1]; MST, HpHtrA S164A) | thermal destabilization (ΔTm) ([2]; higher concentrations of ion) | thermal stabilization (ΔTm) ([2]; low/increasing concentrations of ion)
[Zn+2] [Zn^++, ZnCl2] | 55 ± 34 | 3.6 | 6.0 | – | –
[Cu+2] [Cu^++, CuCl2] | – | – | – | destabilized | stabilized
